In PMC8066331, “Anticancer Activity of Triazolo-Thiadiazole Derivatives and Inhibition of AKT1 and AKT2 Activation” (Pharmaceutics, 2021):

Key:
SW403 = test: MTT in vitro antiproliferative assay, SW403; type: cell-based, human; conditions: for TGI: 48 h drug exposure; for IC50 / GI50: Homo sapiens; for IC50: SW-403, 48 h, 50% cell death; for GI50: SW-403, 48 h drug exposure
Source text: (§1) The in vitro antiproliferative activities of the novel triazolo[3,4-b]thiadiazole derivatives were estimated in ten well-established human cancer cell lines including three ovarian (SKOV-3, UWB 1.289, and UWB 1.289+BRCA1), five colorectal adenocarcinoma (DLD-1, HT-29, LS174T, LoVo, and SW403), and two prostate cancer cell lines (PC-3 and DU-145). All cancer cell lines were obtained from the American Type Culture Collection (ATCC) and cultivated in different culture media according to the instructions. The required growth mediums were supplemented with 10% fetal bovine serum and 1% streptomycin/penicillin. All cancer cell lines were cultured as monolayers and maintained at 37 °C, 5% CO2 in humidified air.
(§2) Stock solutions of all tested compounds were prepared by dissolving the required amount of substances in the DMSO solvent to reach the desired concentration of 15 mM.
(§3) To evaluate the in vitro antiproliferative activity of the triazolo[3,4-b]thiadiazole derivatives, 3-(4,5-dimethylthiazol-2-yl)-2,5-diphenyltetrazolium bromide (MTT) assay was assessed. According to the protocol, cells were firstly seeded into a 96-well plate at a density of 8 × 10^3 cells and grown for 24 h at 37 °C, 5% CO2 in humidified air. Subsequently, cells were treated with the tested compounds in a specific range of drug concentrations (1–100 μΜ). Following 48 h of drug exposure, the culture media were discarded and replaced with 100 μL of fresh medium. Afterwards, 50 μL of dissolved MTT in phosphate-buffered saline (PBS) solution (5 mg/mL) were added in each well and cells were incubated for 3 h at 37 °C, 5% CO2 in humidified air. Incubation time was followed by MTT discard and the addition of 100 μL of DMSO solvent so that the formazan crystals could be dissolved. The absorbance of the converted dye was immediately measured at a wavelength of 540 nm on an ELISA reader (VersaMax Microplate Reader, Orleans, CA, USA).
(§4) The in vitro anticancer effect of a tested compound on cell viability was determined by three dose–response parameters termed GI50, TGI, and IC50. More specifically, the GI50 value indicates the required concentration of the compound that impels 50% cell growth inhibition, the TGI value corresponds to the concentration that induces 100% cell growth inhibition, and the IC50 value is the concentration that causes 50% cell death. The two parameters GI50 and TGI represent the cytostatic activity, whereas IC50 reflects the cytotoxic effect of a drug. To estimate the three parameters, nine absorbance measurements were required including control 24 h (Ct24), control 72 h (Ct72), and the mean of cell survival in all seven drug concentrations (Tt72). The percentage growth inhibition was calculated according to National Cancer Institute’s (NCI) protocol: [(Tt72x) − (Ct24)/(Ct72) − (Ct24)] × 100 for concentrations for which Tt72x > Ct24 and [(Tt72x) − (Ct24)/Ct24] × 100 for concentrations for which Tt72x < Ct24. GI50 was calculated from [(Tt72x) − (Ct24)/(Ct72) − (Ct24)] × 100 = 50, TGI was calculated from [(Tt72x) − (Ct24)/(Ct72) − (Ct24)] × 100 = 0, and IC50 was calculated from [(Tt72x) − (Ct24)/Ct24] × 100 = 50. All the experiments were carried out in triplicate.

HT-29 [1] = test: MTT in vitro antiproliferative assay, HT-29; type: cell-based, human; conditions: HT-29, MTT; for IC50 / GI50: Homo sapiens; for IC50: 48 h, 50% cell death, read-out: IC50; for GI50: read-out: GI50
Source text: as §1, §2, §3, §4

DU-145 = test: MTT in vitro antiproliferative assay, DU-145; type: cell-based, human; conditions: DU-145, MTT; for TGI / GI50: 48 h drug exposure; for IC50 / GI50: Homo sapiens; for IC50: 48 h, 50% cell death, read-out: IC50; for GI50: read-out: GI50
Source text: as §1, §2, §3, §4

HT-29 [2] = tested on: HT-29; parameters: method as in PMID 32801761; conditions: HT-29 cells, concentration used for Akt phosphorylation study, determined in previous studies ref 23; cited from earlier work
LS174T = test: MTT in vitro antiproliferative assay, LS174T; type: cell-based, human; conditions: for TGI / GI50: 48 h drug exposure; for IC50 / GI50: Homo sapiens; for IC50: 48 h, 50% cell death
Source text: as §1, §2, §3, §4

SKOV-3 = test: MTT in vitro antiproliferative assay, SKOV-3; type: cell-based; conditions: Homo sapiens, SK-OV-3, SKOV-3, MTT; for IC50: 48 h, concentration causing 50% cell death, read-out: IC50; for GI50 / IC (TGI): 48 h drug exposure; for GI50: read-out: GI50; for IC (TGI): read-out: TGI
Source text: as §1, §2, §3, §4

LoVo = test: MTT in vitro antiproliferative assay, LoVo; type: cell-based, human; conditions: for TGI / GI50: 48 h drug exposure; for IC50 / GI50: Homo sapiens; for IC50: 48 h, 50% cell death
Source text: as §1, §2, §3, §4

UWB1.289+BRCA1 = test: MTT in vitro antiproliferative assay, UWB1.289+BRCA1; type: cell-based, human; conditions: UWB1.289+BRCA1, MTT; for IC50 / GI50: Homo sapiens; for IC50: 48 h, 50% cell death; for GI50 / TGI: 48 h drug exposure
Source text: as §1, §2, §3, §4

UWB 1.289 = test: MTT in vitro antiproliferative assay, UWB 1.289; type: cell-based, human; conditions: UWB 1.289, MTT; for IC50 / GI50: Homo sapiens, UWB1289; for IC50: 48 h, 50% cell death; for GI50 / TGI: 48 h drug exposure
Source text: as §1, §2, §3, §4

PC-3 = test: MTT in vitro antiproliferative assay, PC-3; type: cell-based; conditions: Homo sapiens, PC-3, MTT; for IC50: 48 h, 50% cell death, read-out: IC50; for GI50 / IC (TGI): 48 h drug exposure; for GI50: read-out: GI50; for IC (TGI): read-out: TGI
Source text: as §1, §2, §3, §4

| SMILES | TGI (SW403) | IC50 (SW403) | GI50 (SW403) | IC50 (HT-29 [1]) | GI50 (HT-29 [1]; 48 h drug exposure) | TGI (DU-145) | IC50 (DU-145) | GI50 (DU-145) | TGI (LS174T) | IC50 (LS174T) | GI50 (LS174T) | IC50 (SKOV-3) | GI50 (SKOV-3) | IC (TGI) (SKOV-3) | TGI (LoVo) | IC50 (LoVo) | GI50 (LoVo) | IC50 (UWB1.289+BRCA1) | GI50 (UWB1.289+BRCA1) | TGI (UWB1.289+BRCA1) | further results |
| --- | --- | --- | --- | --- | --- | --- | --- | --- | --- | --- | --- | --- | --- | --- | --- | --- | --- | --- | --- | --- | --- |
| COc1cc(Cc2nnc3sc(-c4cc([N+](=O)[O-])ccc4[N+](=O)[O-])nn23)c(S(=O)(=O)N(C)C)cc1OC [KA39] | 7.9 ± 0.7 μΜ | 10 ± 0.76 µM | 5.2 ± 0.2 µM | 19.5 ± 0.9 µM | 11.5 ± 0.8 µM | 8 ± 0.4 μΜ | 10.3 ± 1.8 µM | 5.8 ± 0.2 µM | 17 ± 1.3 μΜ | 21.5 ± 1.5 µM | 12 ± 1.5 µM | 25 ± 1.4 µM | 7 ± 0.2 µM | 12 ± 0.8 µM | 5.5 ± 0.1 μΜ | 10.5 ± 0.15 µM | 2.2 ± 0.2 µM | 94 ± 2.3 µM | 6 ± 0.5 µM | 11 ± 0.7 μΜ | TGI (HT-29 [1]; 48 h drug exposure): 15.9 ± 0.55 μΜ; TGI concentration (HT-29 [2]): 15.9 μΜ; IC50 (UWB 1.289): 22 ± 1.2 µM; GI50 (UWB 1.289): 6 ± 0.2 µM; TGI (UWB 1.289): 10 ± 0.8 μΜ; IC50 (PC-3): 12 ± 0.1 µM; GI50 (PC-3): 5 ± 0.15 µM; IC (TGI) (PC-3): 8 ± 0.1 µM |
| COc1cc(Cc2nnc3sc(C=Cc4ccc(F)cc4)nn23)c(S(=O)(=O)N(C)C)cc1OC [KA25] | >100 μΜ | > 100 µM | 4.8 ± 0.8 µM | > 100 µM | 1 ± 0.3 µM | 13.2 ± 0.5 μΜ | 27 ± 0.3 µM | 12.8 ± 1.3 µM | 100 ± 0.1 μΜ | > 100 µM | 9.3 ± 2 µM | 85 ± 2.1 µM | 15 ± 0.5 µM | 50 ± 1.5 µM | 13.8 ± 0.52 μΜ | > 100 µM | 8 ± 0.76 µM | 38 ± 1.1 µM | 4 ± 0.5 µM | 13 ± 0.8 μΜ | TGI concentration (HT-29 [2]): 120 μΜ; IC50 (UWB 1.289): 62 ± 1.2 µM; GI50 (UWB 1.289): 2 ± 0.5 µM; TGI (UWB 1.289): 5 ± 0.7 μΜ; IC50 (PC-3): > 100 µM; GI50 (PC-3): 14 ± 1 µM; IC (TGI) (PC-3): 22 ± 0.8 µM |
| COc1cc(Cc2nnc3sc(C=Cc4ccc(Cl)cc4)nn23)c(S(=O)(=O)N(C)C)cc1OC [KA26] | >100 μΜ | > 100 µM | 11 ± 0.8 µM | > 100 µM | 2 ± 0.76 µM | 70 ± 1.3 μΜ | > 100 µM | 7 ± 1 µM | >100 μΜ | > 100 µM | 8 ± 1.5 µM | > 100 µM | 20 ± 0.5 µM | > 100 µM | >100 μΜ | > 100 µM | 15 ± 0.8 µM | > 100 µM | 42 ± 0.5 µM | 65 ± 0.7 μΜ | IC50 (UWB 1.289): 70 ± 1.4 µM; GI50 (UWB 1.289): 29 ± 0.7 µM; TGI (UWB 1.289): 53 ± 1 μΜ; IC50 (PC-3): > 100 µM; GI50 (PC-3): 42.5 ± 1.5 µM; IC (TGI) (PC-3): > 100 µM |
